Like-named read-outs stand apart in the source and are kept apart here.
What was measured:
[1] = tested on: H3K18Ac in HB-CLS-2 cells; experiment: H3K18AC in-cell western (ICW) assay; assay type: cell-based; conditions: read-out: CREBBP ICW IC50
Outline: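 In-cell western: after methanol fixation, blocking, overnight 4° C anti-H3K18Ac staining, then 800CW secondary plus DRAQ5 for DNA content, integrated intensities were scanned at 800 and 700 nm. Before this, compound exposure lasted 2 hr at 37° C in HB-CLS-2 cells plated 16–24 hours earlier. Values expressed as IC50 (μM).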

647V cells = experiment: High throughput proliferation (HTP) assay; assay type: cell-based; conditions: read-out: CREBBP HTP IC50
Source text: The following example describes methods and materials relating to a high throughput proliferation (HTP) assay. IC50 values (micromolar) are summarized in Table 1, Table 2, and Table 3 under the column labeled: “CREBBP HTP IC50 (micromolar).”
MATERIALS: 647V cell line, Dulbecco's MEM, penicillin-streptomycin, heat inactivated fetal bovine serum, D-PBS, and CellTiter-Glo were commercially available.
647V adherent cells were maintained in complete growth medium (Dulbecco's MEM supplemented with 15% v/v heat inactivated fetal bovine serum) and cultured at 37° C. under 5% CO2.
METHOD: Measurement of the effect of compound in High Throughput Proliferation (HTP) assays was performed as follows: Exponentially growing 647V cells were plated, in triplicate, in 384-well plates at the appropriate cell density in a final volume of 50 μl. Cells were incubated in the presence of increasing concentrations of compound. Viable cell number was determined at day 7 by addition of 35 μl CellTiter-Glo to each well of the plate, incubated in the dark for 30 minutes, and read on a PerkinElmer EnVision instrument to enumerate the number of cells.

CREBBP (1084-1701) = biological target: T1, CREBBP (1084-1701) (Homo sapiens, UniProt Q92793); experiment: Biochemical assay for CREBBP (1084-1701), SAMDI; conditions: SAMDI, read-out: CREBBP Biochemistry IC50
T1 construct: measured in the following biochemical assay using CREBBP (1084-1701); purchased
Outline: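 Acetyltransferase activity measured by SAMDI mass spectrometry after capture on biochip. Enzyme sat with compound 30 min at RT before acetyl-CoA and biotinylated H3 11-25 (K14R, K23R) peptide were added for 30 min at RT. Formic acid quench, bicarbonate neutralisation; IC50 values reported.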

EP300 (P300(1048-1664)) = biological target: T2, EP300 (P300(1048-1664)) (Homo sapiens, UniProt Q09472); experiment: Biochemical assay for EP300, SAMDI; conditions: EP300, SAMDI; read-out: EP300 Biochemistry IC50
T2 construct: P300(1048-1664)
T2 sequence (Q09472 1048-1664): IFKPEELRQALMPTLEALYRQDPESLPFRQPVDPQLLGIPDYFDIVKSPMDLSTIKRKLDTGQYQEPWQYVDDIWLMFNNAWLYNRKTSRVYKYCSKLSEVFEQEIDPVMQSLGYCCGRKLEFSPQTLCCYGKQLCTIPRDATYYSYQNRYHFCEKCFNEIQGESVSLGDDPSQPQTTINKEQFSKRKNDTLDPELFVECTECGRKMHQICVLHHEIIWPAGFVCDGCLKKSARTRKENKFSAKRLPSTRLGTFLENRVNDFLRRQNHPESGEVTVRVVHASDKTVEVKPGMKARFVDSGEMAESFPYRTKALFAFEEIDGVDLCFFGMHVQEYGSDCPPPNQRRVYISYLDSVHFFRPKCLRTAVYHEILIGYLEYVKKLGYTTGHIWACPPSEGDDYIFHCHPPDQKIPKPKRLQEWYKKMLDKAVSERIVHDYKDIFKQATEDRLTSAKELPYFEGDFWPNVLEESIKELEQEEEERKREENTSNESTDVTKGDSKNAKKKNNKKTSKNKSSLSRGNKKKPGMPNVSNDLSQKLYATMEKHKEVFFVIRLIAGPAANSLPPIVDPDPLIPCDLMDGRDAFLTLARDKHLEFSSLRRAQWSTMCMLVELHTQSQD
Source text: The following example describes materials and methods relating to a biochemical assay for EP300. IC50 values (micromolar (μM)) are summarized in Table 1, Table 2, and Table 3 under the column labeled: “EP300 Biochemistry IC50 (micromolar).”

[2] = Homo sapiens, 647-V, high throughput proliferation
[3] = H3K18Ac in-cell western, HB-CLS-2 cells
[4] = Homo sapiens, 647-V, high throughput proliferation, 647V cells
[5] = 2 h, H3K18Ac in HB-CLS-2 cells, 2 hrs compound incubation
[6] = Homo sapiens, 647-V, 168 h, 647V cells, day 7, CellTiter-Glo

T1 sequence (Q92793 1084-1701): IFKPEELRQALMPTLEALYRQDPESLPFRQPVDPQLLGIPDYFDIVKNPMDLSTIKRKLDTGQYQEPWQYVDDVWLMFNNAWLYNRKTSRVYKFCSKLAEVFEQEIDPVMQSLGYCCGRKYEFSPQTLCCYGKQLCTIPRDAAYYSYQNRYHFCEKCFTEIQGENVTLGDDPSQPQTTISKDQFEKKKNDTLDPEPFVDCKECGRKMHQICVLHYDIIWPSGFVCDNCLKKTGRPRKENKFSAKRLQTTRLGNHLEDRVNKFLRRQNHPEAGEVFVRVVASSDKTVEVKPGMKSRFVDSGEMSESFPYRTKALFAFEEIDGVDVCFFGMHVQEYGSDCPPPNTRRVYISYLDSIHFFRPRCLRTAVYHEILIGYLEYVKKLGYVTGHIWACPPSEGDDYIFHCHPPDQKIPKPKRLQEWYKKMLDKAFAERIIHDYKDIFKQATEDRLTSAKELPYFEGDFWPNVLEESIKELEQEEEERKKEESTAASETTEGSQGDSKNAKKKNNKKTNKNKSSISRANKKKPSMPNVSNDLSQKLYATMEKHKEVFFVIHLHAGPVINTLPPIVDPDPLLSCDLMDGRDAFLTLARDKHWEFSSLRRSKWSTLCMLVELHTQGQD

Compound | IC50 ([1]; H3K18Ac in-cell western) [µM] | IC50 (647V cells; [2]) [µM] | IC50 (CREBBP (1084-1701)) [µM] | IC50 (EP300 (P300(1048-1664))) [µM] | IC50 [1, 3] [µM] | further results
CCn1ncc(CN(C)C(=O)c2nc(-c3ccc(OCCCNC)c(C)c3)nc3ccc(Cl)cc23)c1C [Compound 29] | 0.23 | 0.1 | 0.028 | – | – | –
CCn1ncc(CN(C)C(=O)c2nc(-c3ccc(OCCCNC)c(C)c3)nc3ccc(Cl)cc23)c1C [Compound 36] | 0.3 | – | 0.052 | – | – | IC50 (647V cells; high throughput proliferation): 0.18 µM
CCn1ncc(CN(C)C(=O)c2nc(-c3ccc4c[nH]nc4c3Cl)nc3ccc(COC)cc23)c1C [Compound 52] | 0.52 | 0.69 | 0.25 | – | – | –
CCn1ncc(CN(C)C(=O)c2nc(-c3ccc4c[nH]nc4c3Cl)nc3ccc(COC)cc23)c1C [Compound 68] | 0.8 | – | 0.25 | – | – | IC50 (647V cells; high throughput proliferation): 0.69 µM
CCn1ncc(CN(C)C(=O)c2nc(-c3cccc(Cl)c3)nc3ccc(Cl)cc23)c1C [Compound 71] | 0.92 | 1.2 | 0.0094 | – | – | –
CCn1ncc(CN(C)C(=O)c2cc(-c3ccccc3C#N)nc3ccc(Cl)cc23)c1C [Compound 81] | 1.2 | 2.2 | 1.8 | – | – | –
CCn1ncc(CN(C)C(=O)c2cc(-c3ccccc3F)nc3ccc(Cl)cc23)c1C [Compound 86] | 1.3 | 1.4 | 0.71 | – | – | –
CCn1ncc(CN(C)C(=O)c2cc(-c3ccccn3)nc3ccc(Cl)cc23)c1C [Compound 92] | 1.7 | 0.41 | 0.31 | – | – | –
CCn1ncc(CN(C)C(=O)c2cc(-c3cccc(Cl)c3)nc3ccc(Cl)cc23)c1C [Compound 106] | 2.4 | 2.6 | 0.31 | – | – | –
CCn1ncc(CN(C)C(=O)c2nc(-c3cccc(Cl)c3)nc3ccccc23)c1C [Compound 130] | 4.7 | 6.5 | 2 | – | – | –
Cc1c(CN(C)C(=O)c2cc(-c3cccc(Cl)c3)nc3ccc(Cl)cc23)cnn1C(C)C [Compound 132] | 4.9 | 2.2 | 0.31 | – | – | –
CCn1ncc(CN(C)C(=O)c2nc(-c3cncn3C)nc3ccc(Cl)cc23)c1C [Compound 158] | 9.8 | – | 14 | – | – | IC50 (647V cells; high throughput proliferation): 6.6 µM
CCN(Cc1cnn(CC)c1C)C(=O)c1cc(-c2cccc(Cl)c2)nc2ccc(Cl)cc12 [Compound 175] | 15 | 9.4 | 5.3 | – | – | –
CCn1ncc(CN(C)C(=O)c2nc(-c3ccn(CCCN4CCCC4)n3)nc3ccc(Cl)cc23)c1C [Compound 184] | – | – | – | 163 | – | IC50 (647V cells; high throughput proliferation): 15 µM
CCn1ncc(CN(C)C(=O)c2nc(N3CCn4ncnc4C3)nc3ccc(Cl)cc23)c1C [Compound 190] | 20 | 20 | – | 103 | – | –
CCn1ncc(CN(C)C(=O)c2nc(-c3cccc(Cl)c3)nc3cc(N4CCOCC4)c(Cl)cc23)c1C [Compound 200] | – | – | 190 | 126 | 20 | –
CCn1ncc(CN(C)C(=O)c2nc(N3CCNCC3)nc3ccc(Cl)cc23)c1C [Compound 202] | – | – | – | 175 | 20 | –

Compound | IC50 ([1]; H3K18Ac in-cell western) [µM] | IC50 (647V cells; [2]) [µM] | IC50 (CREBBP (1084-1701)) [µM] | IC50 (EP300 (P300(1048-1664))) [µM] | IC50 [1, 3] [µM] | further results
CCn1ncc(CN(C)C(=O)c2nc(-c3cc(C(=O)NC)on3)nc3ccc(Cl)cc23)c1C [Compound 215] | – | – | – | 41 | 20 | –
CCn1ncc(CN(C)C(=O)c2nc(-c3cn(CCNC)cn3)nc3ccc(Cl)cc23)c1C [Compound 228] | – | – | – | 140 | 20 | IC50 (647V cells; [4]): 20 µM
Cc1n[nH]c(C)c1CN(C)C(=O)c1nc(-c2ccccc2Cl)nc2ccc(Cl)cc12 [Compound 229] | – | – | – | – | 20 | IC50 (647V cells; [4]): 20 µM
CCn1ncc(CN(C)C(=O)c2nc(-c3cn(CCCN(C)C(=O)OC(C)(C)C)cn3)nc3ccc(Cl)cc23)c1C [Compound 230] | – | – | – | – | 20 | IC50 (647V cells; [4]): 20 µM
CCn1ncc(CN(C)C(=O)c2nc(-c3cc(Cl)cc(OCCCN(C)C(=O)OC(C)(C)C)c3)nc3ccc(Cl)cc23)c1C [Compound 233] | – | – | – | – | 20 | IC50 (647V cells; [4]): 20 µM
Cc1c(CN(C)C(=O)c2nc(-c3cc(Cl)cc(CNC4CCCCC4)c3)nc3ccc(Cl)cc23)cnn1CO [Compound 236] | – | – | – | 13 | 20 | –
CCn1ncc(CN(C)C(=O)c2nc(-c3cnc(CNC(C)=O)n3C)nc3ccc(Cl)cc23)c1C [Compound 237] | – | – | – | 50 | – | –
CCn1ncc(CN(C)C(=O)c2nc(-c3ccc(OCCNC)cn3)nc3ccc(Cl)cc23)c1C [Compound 238] | – | – | – | – | 20 | IC50 (647V cells; [4]): 20 µM
CCn1ncc(CN(C)C(=O)c2cc(-c3cn(Cc4ccc(OC)cc4)c(CN(C)C)n3)nc3ccc(Cl)cc23)c1C [Compound 239] | – | – | – | – | 20 | IC50 (647V cells; [4]): 20 µM
CCn1ncc(CN(C)C(=O)c2nc(-c3cn(CCN(C)C(=O)OC(C)(C)C)cn3)nc3ccc(Cl)cc23)c1C [Compound 240] | – | – | – | – | 20 | IC50 (647V cells; [4]): 20 µM
CCn1ncc(CN(C)C(=O)c2nc(N3CCN(C)CC3)nc3ccc(Cl)cc23)c1C [Compound 245] | – | – | – | – | 20 | IC50 (647V cells; [4]): 20 µM
CCn1ncc(CN(C)C(=O)c2nc(-c3ccccc3Cl)nc3ccccc23)c1C [Compound 284] | – | – | 13 | – | 15 | IC50 (647V cells; [4]): 8.5 µM
CCn1ncc(CN(C)C(=O)c2cc(-c3cnn[nH]3)nc3ccc(Cl)cc23)c1C [Compound 307] | – | – | – | 8 | – | –
CCn1ncc(CN(C)C(=O)c2cc(-c3cc(C)nc(C)n3)nc3ccc(Cl)cc23)c1C [Compound 411] | – | – | 50 | 50 | – | –
CCn1ncc(CN(C)C(=O)c2nc(-c3cc(C(=O)NC)n(C)n3)nc3ccc(COC)cc23)c1C [Compound 630] | 0.341 | – | 0.149 | 0.072 | – | –
CCn1ncc(CN(C)C(=O)c2cc(-c3ccc(NCC(O)CN(C)C)c(C)n3)nc3ccc(COC)cc23)c1C (stereo not drawn) [Compound 643] | – | – | – | – | – | IC50 [1, 5]: 0.327 µM; IC50 (647V cells; [6]): 0.233 µM
CCc1ncc(CN(C)C(=O)c2cc(-c3ccc(NCC(O)CN(C)C)c(C)n3)nc3ccc(COC)cc23)n1C (stereo not drawn) [Compound 644] | – | – | – | – | – | IC50 [1, 5]: 0.701 µM; IC50 (647V cells; [6]): 0.269 µM

Reference: patent US20220144812A1, “QUINOLINE DERIVATIVES AND THEIR USE FOR THE TREATMENT OF CANCER” (Epizyme, Inc., priority 2019, published 2022)
